pEC50: −log10 of the molar value. Where a name gives a salt, the structure may show the parent alone. Read-outs that look alike come from different tables or passages of the source.
Columns and labels:
expanded OPCs = test: cells; settings: for viability at 0.1 µM / viability at 1 µM / viability at 10 µM: Rattus norvegicus, 72 h
Method in brief: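 Expanded OPCs seeded at 10,000 cells/well in differentiation media, then exposed to NCC library compounds at 10, 1 and 0.1 µM (quadruplicate, 0.1% DMSO) for three days. Viability read as alamarBlue fluorescence (560/590 nm) after 4 h at 37 °C; tunicamycin 5 ng/ml served as toxicity control.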

[1] = tested on: acutely dissociated and purified rat OPCs; test: Acute OL differentiation assay (MBP expression/cell, immunofluorescent image quantification); type: cell-based; settings: for activation at 0.08 µM: test compound at 0.08 uM, read-out: 0.08 uM (% Quet)
Method in brief: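 Oligodendrocyte precursor cells were enriched from P6-P7 Sprague–Dawley rat brains by immunopanning (RAN-2 and GalC depletion, O4 selection), plated at 5000 cells/well in serum-free, mitogen-free differentiation media on PDL/laminin 96-well view plates, centrifuged at 200×g, and pre-incubated 1–2 h before test compounds were added in quadruplicate. On DIV4, cells were fixed, stained for MBP and DAPI, imaged automatically, and MBP expression per cell was quantified.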

[2] = alamarBlue viability of expanded OPCs, compound at 0.1 µM, relative to DMSO control
[3] = alamarBlue viability of expanded OPCs, compound at 1 µM, relative to DMSO control
[4] = alamarBlue viability of expanded OPCs, compound at 10 µM, relative to DMSO control
[5] = Rattus norvegicus, test compound at 2 uM, MBP expression relative to quetiapine, NCC library screen, sheet "All OLga data", read-out: 2 uM (% Quet)
[6] = Rattus norvegicus, test compound at 10 uM, MBP expression relative to quetiapine, NCC library screen, sheet "All OLga data", read-out: 10 uM (% Quet)
[7] = read-out: 0.1 µM (% DMSO), alamarBlue viability, NCC library compound at 0.1 µM, sheet "All Tox data"
[8] = read-out: 1 µM (% DMSO), alamarBlue viability, NCC library compound at 1 µM, sheet "All Tox data"
[9] = read-out: 10 µM (% DMSO), alamarBlue viability, NCC library compound at 10 µM, sheet "All Tox data"
[10] = Rattus norvegicus, test compound at 2 uM, NCC library screen, sheet "All OLga data", relative to quetiapine, read-out: 2 uM (% Quet)
[11] = Rattus norvegicus, test compound at 10 uM, NCC library screen, sheet "All OLga data", relative to quetiapine, read-out: 10 uM (% Quet)
[12] = read-out: 0.1 µM (% DMSO), alamarBlue viability of expanded OPCs, compound at 0.1 µM, sheet All Tox data
[13] = read-out: 1 µM (% DMSO), alamarBlue viability of expanded OPCs, compound at 1 µM, sheet All Tox data
[14] = read-out: 10 µM (% DMSO), alamarBlue viability of expanded OPCs, compound at 10 µM, sheet All Tox data
[15] = Rattus norvegicus, 2 uM test compound, relative to quetiapine, sheet "All OLga data", read-out: OL differentiation, 2 uM (% Quet)
[16] = Rattus norvegicus, 10 uM test compound, relative to quetiapine, sheet "All OLga data", read-out: OL differentiation, 10 uM (% Quet)
[17] = Rattus norvegicus, test compound at 0.4 uM, NCC library screen, sheet "All OLga data", relative to quetiapine, read-out: 0.4 uM (% Quet)
[18] = Rattus norvegicus, 0.4 uM test compound, relative to quetiapine, sheet "All OLga data", read-out: OL differentiation, 0.4 uM (% Quet)

SMILES | 0.1 µM (% DMSO) (expanded OPCs; [2]) | 1 µM (% DMSO) (expanded OPCs; [3]) | 10 µM (% DMSO) (expanded OPCs; [4]) | viability at 0.1 µM (expanded OPCs; [12]) [%] | viability at 1 µM (expanded OPCs; [13]) [%] | viability at 10 µM (expanded OPCs; [14]) [%] | activation at 2 µM [1, 15] [%] | activation at 10 µM [1, 16] [%] | further results
CNC[C@H](O)c1ccc(O)c(O)c1 [Epinephrine] | 101.9 | 92.7 | 81.7 | – | – | – | – | – | activation at 2 µM [1, 5]: -7.6%; activation at 10 µM [1, 6]: -15%
COc1cc(C)nc(-n2nc(C)cc2OC)n1 [Epirizole] | – | – | – | – | – | – | – | – | viability at 0.1 µM (expanded OPCs; [7]): 106%; viability at 1 µM (expanded OPCs; [8]): 110%; viability at 10 µM (expanded OPCs; [9]): 112%; activation at 2 µM [1, 10]: -9.9%; activation at 10 µM [1, 11]: -10.5%
CCOC(=O)CCC(=O)O[C@H]1[C@H](O[C@@H]2[C@@H](C)[C@H](O[C@H]3C[C@@](C)(OC)[C@@H](O)[C@H](C)O3)[C@@H](C)C(=O)O[C@H](CC)[C@@](C)(O)[C@H](O)[C@@H](C)C(=O)[C@H](C)C[C@@]2(C)O)O[C@H](C)C[C@@H]1N(C)C [Erythromycin Ethylsuccinate] | 95.4 | 87.4 | 75.9 | – | – | – | – | – | activation at 2 µM [1, 10]: 1%; activation at 10 µM [1, 11]: 8.7%
CC[C@H]1OC(=O)[C@H](C)[C@@H](O[C@H]2C[C@@](C)(OC)[C@@H](O)[C@H](C)O2)[C@H](C)[C@@H](O[C@@H]2O[C@H](C)C[C@H](N(C)C)[C@H]2O)[C@](C)(O)C[C@@H](C)C(=O)[C@H](C)[C@@H](O)[C@]1(C)O [Erythromycin] | – | – | – | 93.4 | 89.6 | 59.1 | -40.1 | -66.2 | –
COC(=O)CCc1ccc(OCC(O)CNC(C)C)cc1 (stereo not drawn) [Esmolol, reference compound] | – | – | – | 93.8 | 98.2 | 113 | 39.8 | 29.6 | pEC50 ([1]; Rattus norvegicus, average EC50 for induction of OL differentiation from independent biological replicates, eight concentrations): 3.62; hit in OL differentiation assay, MRF-TMC ([1]; ● = confirmed hit in this paper's assay): ●
COc1ccc2nc([S@@+]([O-])Cc3ncc(C)c(OC)c3C)[nH]c2c1 [Esomeprazole] | – | – | – | 85.5 | 90 | 95.3 | 12.7 | -23.8 | –
CCCCC(=O)O[C@H]1CC[C@H]2[C@@H]3CCc4cc(O)ccc4[C@H]3CC[C@]12C [Estradiol valerate] | – | – | – | – | – | – | – | – | viability at 0.1 µM (expanded OPCs; [7]): 93.2%; viability at 1 µM (expanded OPCs; [8]): 93.5%; viability at 10 µM (expanded OPCs; [9]): 9.6%; activation at 0.4 µM [1, 17]: -65.1%
C[C@]12CC[C@@H]3c4ccc(O)cc4CC[C@H]3[C@@H]1CC[C@@H]2O [Estradiol] | – | – | – | 81.2 | 75.5 | 64.6 | 15.2 | 32.1 | –
C[C@]12CC[C@@H]3c4ccc(OS(=O)(=O)O)cc4CC[C@H]3[C@@H]1CCC2=O [Estrone sulfate] | – | – | – | – | – | – | – | – | 0.1 µM (% DMSO) (expanded OPCs; alamarBlue viability, NCC library compound at 0.1 µM, sheet "All Tox data"): 94.4 % DMSO; 1 µM (% DMSO) (expanded OPCs; alamarBlue viability, NCC library compound at 1 µM, sheet "All Tox data"): 83.6 % DMSO; 10 µM (% DMSO) (expanded OPCs; alamarBlue viability, NCC library compound at 10 µM, sheet "All Tox data"): 92.4 % DMSO; 2 uM (% Quet) ([1]; test compound at 2 uM, NCC library screen, sheet "All OLga data", relative to quetiapine): 12.5 % Quet; 10 uM (% Quet) ([1]; test compound at 10 uM, NCC library screen, sheet "All OLga data", relative to quetiapine): 10.2 % Quet
CN1CCN(C(=O)O[C@H]2c3nccnc3C(=O)N2c2ccc(Cl)cn2)CC1 [Eszopiclone] | 103.0 | 99.5 | 106.9 | – | – | – | – | – | activation at 2 µM [1, 5]: -2.9%; activation at 10 µM [1, 6]: -10.2%
C=C(CC)C(=O)c1ccc(OCC(=O)O)c(Cl)c1Cl [Ethacrynic Acid] | 90.2 | 80.6 | 11.2 | – | – | – | – | – | activation at 0.4 µM [1, 17]: -23.7%; activation at 2 µM [1, 10]: -192%
CC[C@@H](CO)NCCN[C@@H](CC)CO [Ethambutol] | 106.3 | 100.0 | 85.9 | – | – | – | – | – | activation at 2 µM [1, 5]: 2.2%; activation at 10 µM [1, 6]: -11.9%
C#C[C@]1(O)CC[C@H]2[C@@H]3CCc4cc(O)ccc4[C@H]3CC[C@@]21C [Ethinyl Estradiol] | – | – | – | 81 | 88 | 43.9 | -2.6 | – | activation at 0.4 µM [1, 18]: 7.3%
CCc1cc(C(N)=S)ccn1 [Ethionamide] | 89.6 | 86.5 | 79.6 | – | – | – | – | – | activation at 2 µM [1, 10]: -7.9%; activation at 10 µM [1, 11]: 7.6%
CC[C@]1(O)CC[C@H]2[C@@H]3CCC4=CCCC[C@@H]4[C@H]3CC[C@@]21C [Ethylestrenol] | – | – | – | – | – | – | – | – | viability at 0.1 µM (expanded OPCs; [7]): 98%; viability at 1 µM (expanded OPCs; [8]): 96.1%; viability at 10 µM (expanded OPCs; [9]): 54.2%; activation at 2 µM [1, 10]: -2.2%; activation at 10 µM [1, 11]: -45.5%
CCC(C(N)=O)N1CCCC1=O (stereo not drawn) [Etiracetam] | – | – | – | 86.3 | 90.6 | 91.7 | -3.1 | -6.3 | –
CCc1cccc2c3c([nH]c12)C(CC)(CC(=O)O)OCC3 (stereo not drawn) [Etodolac] | 98.7 | 88.3 | 92.3 | – | – | – | – | – | activation at 2 µM [1, 5]: 20.9%; activation at 10 µM [1, 6]: 7.5%
CCOC(=O)c1cncn1[C@H](C)c1ccccc1 [Etomidate] | 89.9 | 87.4 | 88.3 | – | – | – | – | – | viability at 0.1 µM (expanded OPCs; [7]): 101%; viability at 1 µM (expanded OPCs; [8]): 87.4%; viability at 10 µM (expanded OPCs; [9]): 83%; activation at 2 µM [1, 5]: 10.1%; activation at 2 µM [1, 10]: -2.5%; activation at 10 µM [1, 6]: -7.1%; activation at 10 µM [1, 11]: -8.3%
CCOC(=O)[C@@]1(CCCCCCOc2ccc(Cl)cc2)CO1 [Etomoxir] | – | – | – | 85.7 | 92.3 | 86.2 | 10.1 | 5.4 | –
COc1cc([C@@H]2c3cc4c(cc3[C@@H](O[C@@H]3O[C@@H]5CO[C@@H](C)O[C@H]5[C@H](O)[C@H]3O)[C@H]3COC(=O)[C@H]23)OCO4)cc(OC)c1O [Etoposide] | – | – | – | – | – | – | – | – | viability at 0.1 µM (expanded OPCs; [7]): 40.9%; viability at 1 µM (expanded OPCs; [8]): 14%; viability at 10 µM (expanded OPCs; [9]): 8.9%; activation at 0.08 µM ([1]; Rattus norvegicus, NCC library screen, sheet "All OLga data", relative to quetiapine): -42.3%
C=C1C[C@@H]2[C@H](CC[C@]3(C)C(=O)CC[C@@H]23)[C@@]2(C)C=CC(=O)C=C12 [Exemestane] | – | – | – | – | – | – | -24.2 | -57.2 | viability at 0.1 µM (expanded OPCs; [7]): 92.7%; viability at 1 µM (expanded OPCs; [8]): 95.1%; viability at 10 µM (expanded OPCs; [9]): 102%
O=C1[C@H](CC[C@H](O)c2ccc(F)cc2)[C@@H](c2ccc(O)cc2)N1c1ccc(F)cc1 [Ezetimibe] | – | – | – | 93.7 | 87.4 | 48.7 | -114 | – | activation at 0.4 µM [1, 18]: -41.3%
CC(=O)OCC(CCn1cnc2cnc(N)nc21)COC(C)=O [Famciclovir] | – | – | – | 97.6 | 90.6 | 106 | -6.9 | -8.8 | –
NC(N)=Nc1nc(CSCCC(N)=NS(N)(=O)=O)cs1 [Famotidine] | – | – | – | 92.3 | 96.4 | 102 | -2.2 | 17.8 | –
NC(=O)OCC(COC(N)=O)c1ccccc1 [Felbamate] | – | – | – | – | – | – | -1.8 | -7.9 | viability at 0.1 µM (expanded OPCs; [7]): 92.3%; viability at 1 µM (expanded OPCs; [8]): 95.5%; viability at 10 µM (expanded OPCs; [9]): 91.9%
CCOC(=O)C1=C(C)NC(C)=C(C(=O)OC)C1c1cccc(Cl)c1Cl (stereo not drawn) [Felodipine] | 85.5 | 62.8 | 18.3 | – | – | – | – | – | activation at 0.08 µM ([1]; Rattus norvegicus, MBP expression relative to quetiapine, NCC library screen, sheet "All OLga data"): -8.1%; activation at 0.4 µM ([1]; Rattus norvegicus, test compound at 0.4 uM, MBP expression relative to quetiapine, NCC library screen, sheet "All OLga data", read-out: 0.4 uM (% Quet)): 0.8%

Source: article PMC5011342, “A high throughput drug screening assay to identify compounds that promote oligodendrocyte differentiation using acutely dissociated and purified oligodendrocyte precursor cells” (BMC Research Notes, 2016)
